According to US20210181109A1 (FUJIFILM Corporation, priority 2018, published 2021):
Counter-ions that a name gives are not always drawn. Like-named read-outs stand apart in the source and are kept apart here.

How the values were obtained:
[1] = NAL depletion percent, HPLC-fluorescence detection
How it was run: (§1)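 NAL (5 μmol/L, pH 10.2 phosphate buffer) reacted with test substance (1 mmol/L stock in water, acetonitrile, acetone or 5% DMSO/acetonitrile) for 24 h at 25 °C in the dark; stopped with TFA to 0.5%. Unreacted NAL quantified by HPLC (UV or fluorescence), n=3; depletion % relative to substance-free blank.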

[2] = Average score of NAC and NAL depletion and prediction of skin allergenicity, fluorescence method; settings: for Average score: test substance solution 1 mmol/L
How it was run: (§2)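 Score is the mean of NAC and NAL depletion percentages, rounded at the second decimal place. Test substances classed as allergenic (S) or non-allergenic (NS) from depletion of NAC, NAL, or their average score.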

[3] = NAC depletion percent, HPLC-UV detection (281 nm); settings: Reference (UV method)
How it was run: (§3)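 NAC at 5 μmol/L in pH 8.0 phosphate buffer reacted with test substance (1 mmol/L stock in water, acetonitrile, acetone or 5% DMSO/acetonitrile) 24 h at 25 °C in the dark, n=3. Stopped with TFA (0.5% final); unreacted NAC quantified by HPLC, depletion percent calculated against blank without test substance.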

[4] = cited from earlier work
[5] = NAC depletion percent, HPLC-fluorescence detection
How it was run: as §3

[6] = Average score of NAC and NAL depletion and prediction of skin allergenicity, UV method; settings: for Average score: test substance solution 1 mmol/L
How it was run: as §2

[7] = NAL depletion percent, HPLC-UV detection (281 nm); settings: Reference (UV method)
How it was run: as §1

[8] = single substance, test substance solution 1 mmol/L, fluorescence method
[9] = single substance, fluorescence method, criterion average score […]
[10] = single substance, fluorescence method
[11] = single substance, test substance solution 1 mmol/L
[12] = known values, LLNA-test-based classification, − for non-allergenic substances
[13] = single substance, Reference (UV method), criterion average score […]
[14] = single substance, Reference (UV method)
[15] = Fluorescence method, non-allergenic substance

CC(C)(C)C(=O)CC(=O)C(C)(C)C [2,2,6,6-Tetramethyl-3,5-heptanedione]
NAL depletion (%) [1, 8]: 0.0% | Prediction result [2, 9]: NS (NS represents as being a non-allergenic substance) | Average score [2, 10]: 0.0% | NAC depletion (%) [3, 11]: 0.5% | EC3 (%) [4, 12]: 27% | NAC depletion (%) [5, 8]: 0.0% | Prediction result [6, 13]: NS (NS represents as being a non-allergenic substance) | Average score [6, 14]: 1.1% | NAL depletion (%) [7, 11]: 1.6%

CCC=CC=CC=O [2,4-Heptadienal]
NAL depletion (%) [1, 8]: 11.8% | Prediction result [2, 9]: S (S represents as being an allergenic substance) | Average score [2, 10]: 29.0% | NAC depletion (%) [3, 11]: 35.8% | EC3 (%) [4, 12]: 4% | NAC depletion (%) [5, 8]: 46.2% | Prediction result [6, 13]: S (S represents as being an allergenic substance) | Average score [6, 14]: 42.9% | NAL depletion (%) [7, 11]: 50.1%

Sc1nc2ccccc2s1 [2-Mercaptobenzothiazole]
NAL depletion (%) [1, 8]: 0.0% | Prediction result [2, 9]: S (S represents as being an allergenic substance) | Average score [2, 10]: 32.7% | NAC depletion (%) [3, 11]: 56.6% | EC3 (%) [4, 12]: 1.7% | NAC depletion (%) [5, 8]: 65.5% | Prediction result [6, 13]: S (S represents as being an allergenic substance) | Average score [6, 14]: 28.4% | NAL depletion (%) [7, 11]: 0.3%

Cn1sccc1=O [2-Methyl-2H-isothiazol-3-one]
NAL depletion (%) [1, 8]: 4.6% | Prediction result [2, 9]: S (S represents as being an allergenic substance) | Average score [2, 10]: 51.6% | NAC depletion (%) [3, 11]: 94.0% | EC3 (%) [4, 12]: 1.9% | NAC depletion (%) [5, 8]: 98.5% | Prediction result [6, 13]: S (S represents as being an allergenic substance) | Average score [6, 14]: 50.5% | NAL depletion (%) [7, 11]: 7.0%

CC(C=O)c1ccccc1 (stereo not drawn) [2-Phenylpropionaldehyde]
NAL depletion (%) [1, 8]: 7.3% | Prediction result [2, 9]: S (S represents as being an allergenic substance) | Average score [2, 10]: 7.9% | NAC depletion (%) [3, 11]: 8.0% | EC3 (%) [4, 12]: 6.3% | NAC depletion (%) [5, 8]: 8.5% | Prediction result [6, 13]: S (S represents as being an allergenic substance) | Average score [6, 14]: 6.3% | NAL depletion (%) [7, 11]: 4.6%

C=CCc1ccc(OC)cc1 [4-Allylanisole]
NAL depletion (%) [1, 8]: 0.7% | Prediction result [2, 9]: S (S represents as being an allergenic substance) | Average score [2, 10]: 7.9% | NAC depletion (%) [3, 11]: 27.0% | EC3 (%) [4, 12]: 18% | NAC depletion (%) [5, 8]: 15.0% | Prediction result [6, 13]: S (S represents as being an allergenic substance) | Average score [6, 14]: 15.4% | NAL depletion (%) [7, 11]: 3.9%

Cn1sc(Cl)cc1=O [5-Chloro-methyl-4-isothiazolin-3-one]
NAL depletion (%) [1, 8]: 9.3% | Prediction result [2, 9]: S (S represents as being an allergenic substance) | Average score [2, 10]: 54.7% | NAC depletion (%) [3, 11]: 100.0% | EC3 (%) [4, 12]: 0.009% | NAC depletion (%) [5, 8]: 100.0% | Prediction result [6, 13]: S (S represents as being an allergenic substance) | Average score [6, 14]: 58.8% | NAL depletion (%) [7, 11]: 17.7%

NC1=CC(=Nc2ccc(N)cc2)C(N)=CC1=Nc1ccc(N)cc1 [Bandrowski's base]
NAL depletion (%) [1, 8]: 1.7% | Prediction result [2, 9]: S (S represents as being an allergenic substance) | Average score [2, 10]: 50.8% | NAC depletion (%) [3, 11]: 100.0% | EC3 (%) [4, 12]: 0.008% | NAC depletion (%) [5, 8]: 100.0% | Prediction result [6, 13]: S (S represents as being an allergenic substance) | Average score [6, 14]: 52.9% | NAL depletion (%) [7, 11]: 5.7%

c1ccc(COOCc2ccccc2)cc1 [Benzyl peroxide]
NAL depletion (%) [1, 8]: 63.7% | Prediction result [2, 9]: S (S represents as being an allergenic substance) | Average score [2, 10]: 81.9% | NAC depletion (%) [3, 11]: 100.0% | EC3 (%) [4, 12]: 0.004% | NAC depletion (%) [5, 8]: 100.0% | Prediction result [6, 13]: S (S represents as being an allergenic substance) | Average score [6, 14]: 75.3% | NAL depletion (%) [7, 11]: 50.6%

ClC(Cl)c1ccccc1 [Benzylidene dichloride]
NAL depletion (%) [1, 15]: 1.4% | Prediction result [2]: NS (key: S represents as being an allergenic substance; NS represents as being a non-allergenic substance) | NAC depletion (%) ([3]; non-allergenic substance): 0.9% | EC3 (%) ([4]; in vivo): − | NAC depletion (%) [5, 15]: 2.1% | Prediction result [6]: NS (key: S represents as being an allergenic substance; NS represents as being a non-allergenic substance) | NAL depletion (%) ([7]; non-allergenic substance): −0.3%

CC(=O)C=Cc1ccccc1 [Benzylideneacetone]
NAL depletion (%) [1, 8]: 10.0% | Prediction result [2, 9]: S (S represents as being an allergenic substance) | Average score [2, 10]: 38.6% | NAC depletion (%) [3, 11]: 44.9% | EC3 (%) [4, 12]: 3.7% | NAC depletion (%) [5, 8]: 67.3% | Prediction result [6, 13]: S (S represents as being an allergenic substance) | Average score [6, 14]: 26.1% | NAL depletion (%) [7, 11]: 7.2%

CCN(CCNS(C)(=O)=O)c1ccc(N)c(C)c1.CCN(CCNS(C)(=O)=O)c1ccc(N)c(C)c1.O=S(=O)(O)O.O=S(=O)(O)O.O=S(=O)(O)O [CD3]
NAL depletion (%) [1, 8]: 8.1% | Prediction result [2, 9]: S (S represents as being an allergenic substance) | Average score [2, 10]: 54.0% | NAC depletion (%) [3, 11]: 76.6% | EC3 (%) [4, 12]: 0.6% | NAC depletion (%) [5, 8]: 100.0% | Prediction result [6, 13]: S (S represents as being an allergenic substance) | Average score [6, 14]: 46.6% | NAL depletion (%) [7, 11]: 16.5%

Clc1ccccc1 [Chlorobenzene]
NAL depletion (%) [1, 15]: 0.1% | Prediction result [2]: NS (key: S represents as being an allergenic substance; NS represents as being a non-allergenic substance) | NAC depletion (%) ([3]; non-allergenic substance): 0.0% | EC3 (%) ([4]; in vivo): − | NAC depletion (%) [5, 15]: 1.3% | Prediction result [6]: NS (key: S represents as being an allergenic substance; NS represents as being a non-allergenic substance) | NAL depletion (%) ([7]; non-allergenic substance): 0.7%

O=CC=Cc1ccccc1 [Cinnamaldehyde]
NAL depletion (%) [1, 8]: 12.8% | Average score [2, 10]: 33.4% | NAC depletion (%) [3, 11]: 37.0% | EC3 (%) ([4]; in vivo): 3% | NAC depletion (%) [5, 8]: 54.1% | Average score [6, 14]: 25.0% | NAL depletion (%) [7, 11]: 13.1%

CC(C=O)Cc1ccc(C(C)C)cc1 (stereo not drawn) [Cyclamen aldehyde]
NAL depletion (%) [1, 8]: 0.0% | Prediction result [2, 9]: S (S represents as being an allergenic substance) | Average score [2, 10]: 6.1% | NAC depletion (%) [3, 11]: 3.1% | EC3 (%) [4, 12]: 22% | NAC depletion (%) [5, 8]: 12.2% | Prediction result [6, 13]: NS (NS represents as being a non-allergenic substance) | Average score [6, 14]: 2.4% | NAL depletion (%) [7, 11]: 1.7%

CCOC(=O)/C=C\C(=O)OCC [Diethyl maleate]
NAL depletion (%) [1, 8]: 4.7% | Prediction result [2, 9]: S (S represents as being an allergenic substance) | Average score [2, 10]: 18.0% | NAC depletion (%) [3, 11]: 31.8% | EC3 (%) [4, 12]: 5.8% | NAC depletion (%) [5, 8]: 31.2% | Prediction result [6, 13]: S (S represents as being an allergenic substance) | Average score [6, 14]: 19.8% | NAL depletion (%) [7, 11]: 7.7%

O=c1c(-c2ccccc2)c1-c1ccccc1 [Diphenylcyclopropenone]
NAL depletion (%) [1, 8]: 2.4% | Prediction result [2, 9]: S (S represents as being an allergenic substance) | Average score [2, 10]: 16.0% | NAC depletion (%) [3, 11]: 28.7% | EC3 (%) [4, 12]: 0.0003% | NAC depletion (%) [5, 8]: 29.7% | Prediction result [6, 13]: S (S represents as being an allergenic substance) | Average score [6, 14]: 17.5% | NAL depletion (%) [7, 11]: 6.3%

C=CC(=O)OCC [Ethyl acrylate]
NAL depletion (%) [1, 8]: 10.6% | Prediction result [2, 9]: S (S represents as being an allergenic substance) | Average score [2, 10]: 49.6% | NAC depletion (%) [3, 11]: 87.8% | EC3 (%) ([4]; in vivo): 28% | NAC depletion (%) [5, 8]: 88.7% | Prediction result [6, 13]: S (S represents as being an allergenic substance) | Average score [6, 14]: 50.8% | NAL depletion (%) [7, 11]: 13.7%

C=C(C)C(=O)OCCOC(=O)C(=C)C [Ethylene glycol dimethacrylate]
NAL depletion (%) [1, 8]: 1.5% | Prediction result [2, 9]: NS (NS represents as being a non-allergenic substance) | Average score [2, 10]: 4.4% | NAC depletion (%) [3, 11]: 5.9% | EC3 (%) [4, 12]: 28% | NAC depletion (%) [5, 8]: 7.3% | Prediction result [6, 13]: NS (NS represents as being a non-allergenic substance) | Average score [6, 14]: 4.3% | NAL depletion (%) [7, 11]: 2.6%

O=CCCCC=O [Glutaraldehyde]
NAL depletion (%) [1, 8]: 47.4% | Prediction result [2, 9]: S (S represents as being an allergenic substance) | Average score [2, 10]: 23.7% | NAC depletion (%) [3, 11]: 0.8% | EC3 (%) [4, 12]: 0.1% | NAC depletion (%) [5, 8]: 0.0% | Prediction result [6, 13]: S (S represents as being an allergenic substance) | Average score [6, 14]: 26.9% | NAL depletion (%) [7, 11]: 53.1%
